Like-named read-outs stand apart in the source and are kept apart here. Positions of bridges follow the written chain, without caps; N, C: chain ends. Non-standard residues stand in square brackets, D forms with d. Residues, ends and D or L forms follow the SMILES beside them. Tic = O=C(O)[C@@H]1Cc2ccccc2CN1; dTic = O=C(O)[C@H]1Cc2ccccc2CN1; NMeL = CN[C@@H](CC(C)C)C(=O)O; AEEA = NCCOCCOCC(=O)O
Key:
HIV-1 NL4-3 DTV = settings: read-out: IC50 DTV, P4-CCR5 cells, peptide 2 h before infection, readout three days after infection
Summary of the method: (§1)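 P4-CCR5 cells (CD4, CCR5, CXCR4, HIV-1 promoter-driven β-galactosidase) pretreated 2 h with peptide, then infected with virus containing 1 ng p24 antigen and incubated overnight. Cells washed and cultured without peptide; three days post-infection infectivity read by chemiluminescent β-galactosidase assay, in quintuplicate.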

X4-tropic HIV-1 NL4-3 = settings: read-out: IC50 NL4-3; P4-CCR5 cells, HIV-1 NL4-3, peptide 2 h before infection, readout three days after infection
Summary of the method: as §1

[1] = human, plasma
Description: (§2) Plasma was spiked resulting in concentrations of 40 μg/ml and stored at 37° C. At time points 0, 15, 30, 45, 60, 120, 180, 240 and 300 min samples of 20 μl were taken. The plasma was immediately mixed for precipitation with the two-fold volume of acetonitrile containing 0.15% (w/v) n-nonyl-β-D-glucopyranoside. Following centrifugation the supernatants were mixed with the two-fold volume of 0.1% (v/v) trifluroacetic acid. Twenty μl of these solutions were analyzed by LC-MS. Chromatography was performed using a gradient with the following eluents: eluent A: water containing 0.06% trifluroacetic acid (v/v), eluent B: acetonitrile/water 80:20 (v/v; with 0.05% trifluoroacetic acid; v/v). A C18 precolumn was used in combination with a C18 separation column (300 Å, 5 μm, 150×1 mm inner diameter) at a flow rate of 30 μl/min. HPLC eluates were ionized by the electrospray technique of a LCQ classic mass spectrometer. Areas of the detected peaks of the peptides of the present invention were measured and used for quantification by external calibration. The calibration curve was linear over a range from 0.5 μg/ml to 250 μg/ml plasma. Half life—defined as the period for a concentration decrease to 50% of the initial concentration—was calculated from the slope of an extrapolated curve plotting the relative peptide concentration at a given time point (logarithm scale) against the incubation time. These experiments allowed the quantitative analysis of peptide concentration in plasma.

[2] = rat, plasma
Description: as §2

[3] = dog, plasma
Description: as §2

[4] = cynomolgus monkey, plasma
Description: as §2

Structure (SMILES)	IC50 (HIV-1 NL4-3 DTV) [µM]	IC50 (X4-tropic HIV-1 NL4-3) [µM]	half-life [1] [h]	half-life [2] [h]	half-life [3] [h]	half-life [4] [h]
CC[C@H](C)[C@H](NC(=O)[C@H](C)NC(=O)[C@H](CCC(=O)O)NC(=O)[C@H](CC(C)C)NC)C(=O)N1CCC[C@H]1C(=O)N[C@@H](CCSC)C(=O)N[C@@H](CO)C(=O)N[C@H](C(=O)N1CCC[C@H]1C(=O)N1CCC[C@H]1C(=O)N[C@@H](CCC(=O)O)C(=O)N[C@@H](Cc1ccccc1)C(=O)N[C@@H](CC(C)C)C(=O)N[C@@H](Cc1ccccc1)C(=O)NCC(=O)N[C@@H](CCCCN)C(=O)N1CCC[C@H]1C(=O)N[C@@H](Cc1ccccc1)C(=O)N[C@H](C(=O)N[C@@H](Cc1ccccc1)C(=O)O)C(C)C)[C@@H](C)CC [VIR-512] (H-[NMeL]EAIPMSIPPEFLFGKPFVF-OH)	0.615	0.138	315	> 6	48.1	33.6
CC[C@H](C)[C@H](NC(=O)[C@H](C)NC(=O)[C@H](CCC(=O)O)NC(=O)[C@@H](N)CC(C)C)C(=O)N1CCC[C@H]1C(=O)N[C@@H](CCSC)C(=O)NCC(=O)N[C@H](C(=O)N1CCC[C@H]1C(=O)N1CCC[C@@H]1C(=O)N[C@@H](CCC(=O)O)C(=O)N[C@H](C(=O)N1Cc2ccccc2C[C@H]1C(=O)N[C@@H](Cc1ccccc1)C(=O)N[C@@H](CC(N)=O)C(=O)N[C@@H](CCCCN)C(=O)N1CCC[C@H]1C(=O)N[C@@H](Cc1ccccc1)C(=O)N[C@H](C(=O)N[C@@H](Cc1ccccc1)C(=O)O)C(C)C)C(C)C)[C@@H](C)CC [VIR-449, LEAIPMGIPpEV(L-Tic)FNKPFVF] (H-LEAIPMGIP[dP]EV[Tic]FNKPFVF-OH)	0.24	0.274	4.8	0.2	42.2	4.2
CC[C@H](C)[C@H](NC(=O)[C@H](CCCCN)NC(=O)[C@H](CCC(=O)O)NC(=O)[C@@H](N)CC(C)C)C(=O)N1CCC[C@H]1C(=O)N[C@H]1CSSC[C@@H](C(=O)N[C@H](C(=O)N[C@@H](C)C(=O)N[C@@H](Cc2ccccc2)C(=O)N[C@@H](CC(N)=O)C(=O)N[C@@H](CCCCN)C(=O)N2CCC[C@H]2C(=O)N[C@@H](Cc2ccccc2)C(=O)N[C@H](C(=O)N[C@@H](Cc2ccccc2)C(=O)O)C(C)C)C(C)C)NC(=O)[C@H]2CCCN2C(=O)[C@@H]2CCCN2C(=O)[C@H]([C@@H](C)CC)NC(=O)[C@H](CO)NC1=O [VIR-358, LEKIPCSIPpCVAFNKPFVF] (H-LEKIPCSIP[dP]CVAFNKPFVF-OH; disulfide 6-11)	0.944	0.706	5.9	0.4	16	4.7
CC[C@H](C)[C@H](NC(=O)[C@@H]1CCCN1C(=O)[C@@H](NC(=O)[C@H](CCCCN)NC(=O)[C@H](CCC(=O)O)NC(=O)[C@@H](N)CC(C)C)[C@@H](C)CC)C(=O)NCC(=O)N[C@H](C(=O)N1CCC[C@H]1C(=O)N1CCC[C@@H]1C(=O)N[C@@H](CCC(=O)O)C(=O)N[C@H](C(=O)N1Cc2ccccc2C[C@@H]1C(=O)N[C@@H](Cc1ccccc1)C(=O)N[C@@H](CC(N)=O)C(=O)N[C@@H](CCCCN)C(=O)N1CCC[C@H]1C(=O)N[C@@H](Cc1ccccc1)C(=O)N[C@H](C(=O)N[C@@H](Cc1ccccc1)C(=O)O)C(C)C)C(C)C)[C@@H](C)CC [VIR-483, LEKIPIGIPpEV(D-Tic)FNKPFVF] (H-LEKIPIGIP[dP]EV[dTic]FNKPFVF-OH)	0.866	0.765	2.6	0.2	6.2	2.2
CC[C@H](C)[C@H](NC(=O)[C@H](C)NC(=O)[C@H](CCC(=O)O)NC(=O)[C@@H](N)CC(C)C)C(=O)N1CCC[C@H]1C(=O)N[C@@H](CCSC)C(=O)NCC(=O)N[C@H](C(=O)N1CCC[C@H]1C(=O)N1CCC[C@@H]1C(=O)N[C@@H](CCC(=O)O)C(=O)N[C@H](C(=O)N1Cc2ccccc2C[C@@H]1C(=O)N[C@@H](Cc1ccccc1)C(=O)N[C@@H](CC(N)=O)C(=O)N[C@@H](CCCCN)C(=O)N1CCC[C@H]1C(=O)N[C@@H](Cc1ccccc1)C(=O)N[C@H](C(=O)N[C@@H](Cc1ccccc1)C(=O)O)C(C)C)C(C)C)[C@@H](C)CC [VIR-448, LEAIPMGIPpEV(D-Tic)FNKPFVF] (H-LEAIPMGIP[dP]EV[dTic]FNKPFVF-OH)	0.325	0.318	3.1	0.2	18	4.5
CC[C@H](C)[C@H](NC(=O)[C@H](C)NC(=O)[C@H](CCC(=O)O)NC(=O)[C@@H](N)CC(C)C)C(=O)N1CCC[C@H]1C(=O)N[C@H]1CSSC[C@@H](C(=O)N[C@H](C(=O)N[C@@H](Cc2ccccc2)C(=O)N[C@@H](Cc2ccccc2)C(=O)N[C@@H](CC(N)=O)C(=O)N[C@@H](CCCCN)C(=O)N2CCC[C@H]2C(=O)N[C@@H](Cc2ccccc2)C(=O)N[C@H](C(=O)N[C@@H](Cc2ccccc2)C(=O)O)C(C)C)C(C)C)NC(=O)[C@H]2CCCN2C(=O)[C@@H]2CCCN2C(=O)[C@H]([C@@H](C)CC)NC(=O)[C@H](CO)NC1=O [VIR-352, LEAIPCSIPpCVFFNKPFVF] (H-LEAIPCSIP[dP]CVFFNKPFVF-OH; disulfide 6-11)	0.624	0.34	3.6	0.2	23.7	6.4
CC[C@H](C)[C@H](NC(=O)[C@H](C)NC(=O)[C@H](CCC(=O)O)NC(=O)[C@@H](N)CC(C)C)C(=O)N1CCC[C@H]1C(=O)N[C@H]1CSSC[C@@H](C(=O)N[C@H](C(=O)N[C@@H](Cc2ccccc2)C(=O)N[C@@H](Cc2ccccc2)C(=O)NCC(=O)N[C@@H](CCCCN)C(=O)N2CCC[C@H]2C(=O)N[C@@H](Cc2ccccc2)C(=O)N[C@H](C(=O)N[C@@H](Cc2ccccc2)C(=O)O)C(C)C)C(C)C)NC(=O)[C@@H]2CCCN2C(=O)[C@@H]2CCCN2C(=O)[C@H]([C@@H](C)CC)NC(=O)[C@H](CO)NC1=O [VIR-344] (H-LEAIPCSIPPCVFFGKPFVF-OH; disulfide 6-11)	0.448	0.348	7	0.1	6.6	10.5
CC[C@H](C)[C@H](NC(=O)[C@H](C)NC(=O)[C@H](CCC(=O)O)NC(=O)[C@@H](N)CC(C)C)C(=O)N1CCC[C@H]1C(=O)N[C@@H](CCSC)C(=O)N[C@H]1CSSC[C@@H](C(=O)N[C@@H](Cc2ccccc2)C(=O)N[C@@H](Cc2ccccc2)C(=O)N[C@@H](CC(N)=O)C(=O)N[C@@H](CCCCN)C(=O)N2CCC[C@H]2C(=O)N[C@@H](Cc2ccccc2)C(=O)N[C@H](C(=O)N[C@@H](Cc2ccccc2)C(=O)O)C(C)C)NC(=O)[C@H](CCC(=O)O)NC(=O)[C@@H]2CCCN2C(=O)[C@@H]2CCCN2C(=O)[C@H]([C@@H](C)CC)NC1=O [VIR-273] (H-LEAIPMCIPPECFFNKPFVF-OH; disulfide 7-12)	1.1	0.332	4.2	0.1	12.4	3.6
CC[C@H](C)[C@H](NC(=O)[C@H](C)NC(=O)[C@H](CCC(=O)O)NC(=O)[C@@H](N)CC(C)C)C(=O)N1CCC[C@H]1C(=O)N[C@@H](CCSC)C(=O)N[C@@H](CO)C(=O)N[C@H](C(=O)N1CCC[C@H]1C(=O)N1CCC[C@H]1C(=O)N[C@@H](CCC(=O)O)C(=O)N[C@@H](Cc1ccccc1)C(=O)N[C@@H](CC(C)C)C(=O)N[C@@H](Cc1ccccc1)C(=O)NCC(=O)N[C@@H](CCCCN)C(=O)N1CCC[C@H]1C(=O)N[C@@H](Cc1ccccc1)C(=O)N[C@H](C(=O)N[C@@H](Cc1ccccc1)C(=O)NCCOCCOCC(=O)NCCOCCOCC(N)=O)C(C)C)[C@@H](C)CC [VIR-580] (H-LEAIPMSIPPEFLFGKPFVF[AEEA][AEEA]-NH2)	0.497	0.15	38.9	1.4	42	10.2
CC[C@H](C)[C@H](NC(=O)[C@H](C)NC(=O)[C@H](CCC(=O)O)NC(=O)[C@@H](N)CC(C)C)C(=O)N1CCC[C@H]1C(=O)N[C@H]1CSSC[C@@H](C(=O)N[C@@H](Cc2ccccc2)C(=O)N[C@@H](CC(C)C)C(=O)N[C@@H](Cc2ccccc2)C(=O)N[C@@H](CC(N)=O)C(=O)N[C@@H](CCCCN)C(=O)N2CCC[C@H]2C(=O)N[C@@H](Cc2ccccc2)C(=O)N[C@H](C(=O)N[C@@H](Cc2ccccc2)C(=O)O)C(C)C)NC(=O)[C@H]2CCCN2C(=O)[C@@H]2CCCN2C(=O)[C@H]([C@@H](C)CC)NC(=O)[C@H](CO)NC1=O [VIR-353, LEAIPCSIPpCFLFNKPFVF] (H-LEAIPCSIP[dP]CFLFNKPFVF-OH; disulfide 6-11)	0.181	0.225	4	0.2	15.2	5
CC[C@H](C)[C@H](NC(=O)[C@H](CCCCN)NC(=O)[C@H](CCC(=O)O)NC(=O)[C@@H](N)CC(C)C)C(=O)N1CCC[C@H]1C(=O)N[C@@H](CCSC)C(=O)N[C@@H](CO)C(=O)N[C@H](C(=O)N1CCC[C@H]1C(=O)N1CCC[C@@H]1C(=O)N[C@@H](CCC(=O)O)C(=O)N[C@H](C(=O)N1Cc2ccccc2C[C@@H]1C(=O)N[C@@H](Cc1ccccc1)C(=O)N[C@@H](CC(N)=O)C(=O)N[C@@H](CCCCN)C(=O)N1CCC[C@H]1C(=O)N[C@@H](Cc1ccccc1)C(=O)N[C@H](C(=O)N[C@@H](Cc1ccccc1)C(=O)O)C(C)C)C(C)C)[C@@H](C)CC [VIR-454, LEKIPMSIPpEV(D-Tic)FNKPFVF] (H-LEKIPMSIP[dP]EV[dTic]FNKPFVF-OH)	1.09	0.464	4.4	0.2	15.6	4.4

— patent publication US7655629B2, “Peptides and their use for the treatment of HIV infections” (priority 2002, dated 2010)
